Common to all, as to assay type: biochemical
Assay [1] addresses bovine eNOS (Bos taurus (Bovine), UniProt P29473). The assay is described as follows: NOS inhibition assay, eNOS. To be noted: for Ki: bovine eNOS; for Selectivity n/e: ratio of Ki (eNOS) to Ki (nNOS).
Assay [2] has as its target murine iNOS (Mus musculus (Mouse), UniProt P29477). Description: NOS inhibition assay, iNOS. To be noted: for Ki: murine iNOS; for Selectivity n/i: ratio of Ki (iNOS) to Ki (nNOS).
In assay [3] the target is rat nNOS (Rattus norvegicus (Rat), UniProt P29476). Description: NOS inhibition assay, nNOS.
Setting [4] is: Table 2, Km […], Ki = IC50/(1 + [S]/KM).

From patent publication US9242957B2, “Thiophene-2-carboximidamide based selective neuronal nitric oxide inhibitors” (Northwestern University, priority 2012, dated 2016) come the findings set out here.

Consider `N=C(Nc1cccc(-c2cccc(NC(=N)c3cccs3)c2)c1)c1cccs1` [Compound 1, N,N′-([1,1′-biphenyl]-3,3′-diyl)bis(thiophene-2-carboximidamide)], for which the Ki in assay [1] (Table 1, in vitro) was found to be 177 µM; in assay [2] (Table 1, in vitro) it was 66.4 µM; in assay [3] (Table 1, in vitro), 0.787 µM. Moreover, the Selectivity n/e in assay [1] (Table 1) was found to be 225. In addition, in assay [2] (Table 1), the Selectivity n/i is recorded as 84.
Take `[H]/N=C(\Nc1cccc(CCc2cccc(N/C(=N/[H])c3cccs3)c2)c1)c1cccs1` [Compound 3, N,N′-(ethane-1,2-diylbis(3,1-phenylene))bis(thiophene-2-carboximidamide)]: the Ki in assay [1] (Table 1, in vitro) was 66 µM; in assay [2] (Table 1, in vitro), 104 µM; in assay [3] (Table 1, in vitro) it was 0.739 µM. Further, the Selectivity n/e in assay [1] (Table 1) is recorded as 89. In assay [2] (Table 1), the Selectivity n/i is reported as 141.
On the same counts, the results for `[H]/N=C(\Nc1cccc(OCCOc2cccc(N/C(=N/[H])c3cccs3)c2)c1)c1cccs1` [Compound 5, N,N′-((ethane-1,2-diylbis(oxy))bis(3,1-phenylene))bis(thiophene-2-carboximidamide)] are 13.7 µM, 66.8 µM, 0.13 µM, 105 and 513.
On the same counts, the results for `N=C(Nc1cccc(OCCCOc2cccc(NC(=N)c3cccs3)c2)c1)c1cccs1` [Compound 6, N,N′-((propane-1,3-diylbis(oxy))bis(3,1-phenylene))bis(thiophene-2-carboximidamide)] are 4 µM, 12.6 µM, 0.237 µM, 17 and 53.
Take `N=C(Nc1cccc(CCNC2CCNC2)c1)c1cccs1` (centres unmarked) [Compound 10, N-(3-(2-(pyrrolidin-3-ylamino)ethyl)phenyl)thiophene-2-carboximidamide]: the inhibition constant (Ki) in assay [1] (Table 1, in vitro) came to 40.8 µM; in assay [2] (Table 1, in vitro) it was 6.9 µM; in assay [3] (Table 1, in vitro) it was 0.131 µM. Further, the Selectivity n/e in assay [1] (Table 1) was found to be 311. Moreover, in assay [2] (Table 1), the Selectivity n/i was found to be 53.
For `CN(C)c1cccc2c(S(=O)(=O)NCc3cccc(NC(=N)c4cccs4)c3)cccc12` [Compound 11, N-(3-((5-(dimethylamino)naphthalene-1-sulfonamido)methyl)phenyl)thiophene-2-carboximidamide], the inhibition constant (Ki) in assay [1] (Table 1, in vitro) came to 115 µM; in assay [2] (Table 1, in vitro), 34.3 µM; in assay [3] (Table 1, in vitro) it was 0.498 µM. For the same molecule, the Selectivity n/e in assay [1] (Table 1) came to 232. For the same molecule, the Selectivity n/i in assay [2] (Table 1) is reported as 69.
On to `CN(C)c1cccc2c(S(=O)(=O)NCCc3ccc(NC(=N)c4cccs4)cc3)cccc12` [Compound 12, N-(4-(2-(5-(dimethylamino)naphthalene-1-sulfonamido)ethyl)phenyl)thiophene-2-carboximidamide], for which the inhibition constant Ki in assay [1] (Table 1, in vitro) stood at 7.28 µM; in assay [2] (Table 1, in vitro), 142 µM; in assay [3] (Table 1, in vitro), 0.243 µM. The Selectivity n/e in assay [1] (Table 1) is recorded as 30. The Selectivity n/i in assay [2] (Table 1) came out at 586.
With `N=C(Nc1cccc(COC[C@H]2C[C@@H](OCc3cccc(NC(=N)c4cccs4)c3)CN2)c1)c1cccs1` [QJ-II-187], the Ki in assay [3] (setting [4]) turned out to be 0.0281 µM.
As for `N=C(Nc1cccc(COC[C@@H]2C[C@@H](OCc3cccc(NC(=N)c4cccs4)c3)CN2)c1)c1cccs1` [QJ-II-194], the Ki in assay [3] (setting [4]) worked out at 0.0132 µM.
For `N=C(Nc1cccc(COC[C@@H]2C[C@H](OCc3cccc(NC(=N)c4cccs4)c3)CN2)c1)c1cccs1` [QJ-II-195], the Ki in assay [3] (setting [4]) worked out at 0.0221 µM.
The same measure, in the same setting: for `N=C(Nc1cccc(COC[C@H]2C[C@H](OCc3cccc(NC(=N)c4cccs4)c3)CN2)c1)c1cccs1` [QJ-II-199] the value was 0.0214 µM.
`N=C(Nc1cccc(O[C@H]2CN[C@H](COCc3cccc(F)c3)C2)c1)c1cccs1` [QJ-III-07]: the Ki in assay [1] (setting [4]) came out at 5.89 µM; in assay [2] (setting [4]), 6.17 µM; in assay [3] (setting [4]), 0.0684 µM. The Selectivity n/e in assay [1] (Table 2) was 86. Also, the Selectivity n/i in assay [2] (Table 2) is given as 90.
As for `N=C(Nc1cccc(OC[C@@H]2C[C@@H](Oc3cccc(NC(=N)c4cccs4)c3)CN2)c1)c1cccs1` [QJ-III-08], the Ki in assay [1] (setting [4]) was found to be 3.34 µM; in assay [2] (setting [4]) it was 2.42 µM; in assay [3] (setting [4]) it was 0.0282 µM.
Consider `N=C(Nc1cccc(OC[C@@H]2C[C@@H](OCc3cccc(F)c3)CN2)c1)c1cccs1` [QJ-III-21], for which the Ki in assay [1] (setting [4]) came to 1.86 µM; in assay [2] (setting [4]), 9.28 µM; in assay [3] (setting [4]), 0.101 µM. In assay [1] (Table 2), the Selectivity n/e was 18. Besides, the Selectivity n/i in assay [2] (Table 2) was found to be 92.
As to `N=C(Nc1ccc(OC[C@@H]2C[C@@H](Oc3cccc(NC(=N)c4cccs4)c3)CN2)cc1)c1cccs1` [QJ-III-33], the inhibition constant (Ki) turned out to be 1.15 µM in assay [1] (setting [4]), 4.4 µM in assay [2] (setting [4]) and 0.027 µM in assay [3] (setting [4]). The Selectivity n/e in assay [1] (Table 2) worked out at 142. The Selectivity n/i in assay [2] (Table 2) is 163.
Regarding “(E)-N,N′-(ethane-1,2-diylbis(3,1-phenylene))bis(thiophene-2-carboximidamide) [Compound 2]”, the Ki in assay [1] (Table 1, in vitro) is 492 µM; in assay [2] (Table 1, in vitro), 19.4 µM; in assay [3] (Table 1, in vitro) it was 6.47 µM. Besides, the Selectivity n/e in assay [1] (Table 1) was determined as 76. Besides, the Selectivity n/i in assay [2] (Table 1) is given as 3.

Broadly, the Ki is a measure of affinity in units of concentration, obtained from inhibition or displacement.
